Reference: patent publication US20030119186A1, “Enzyme-mediated modification of fibrin for tissue engineering: fibrin formulations with peptides” (Eidgenossische Technische Hochschule Zurich, priority 1998, published 2003)
“And” between values parts separate entries of the source, which are not always exact repeats. Identical values can stand only once.

How the values were obtained:
[1] = tested on: day 8 chick dorsal root ganglia; experiment: Neurite outgrowth from dorsal root ganglia embedded in three dimensional peptide-modified fibrin gels, normalized to unmodified fibrin; assay type: cell-based; details: for concentration of incorporated peptide giving maximal effect on neurite outgrowth / correlation between peptide concentration and level of enhancement of neurite outgrowth / peptide concentration showing maximal enhancement of neurite outgrowth: single peptide cross-linked into fibrin, concentration series; for concentration of incorporated peptide giving maximal effect on neurite outgrowth / peptide concentration showing maximal enhancement of neurite outgrowth: growth at 24 and 48 hr; for Enhancement of Neurite Outgrowth (%): bi-domain peptide cross-linked into fibrin at 8 mol/mol fg without heparin, 48 hours, relative to unmodified fibrin
Description: FIG. 1 Enhancement of neurite outgrowth with HAV (SEQ. I.D. NO. 6) modified fibrin gels. A concentration series of HAV (SEQ. I.D. NO. 6) cross-linked into fibrin was tested in triplicate with day 8 chick dorsal root ganglia. The level of growth at 24 and 48 hours was calculated and normalized to growth in unmodified fibrin. Mean and standard error of the mean are shown. Legend to FIG. 1: -[…]- 24 Hours, -⋄- 48 Hours.
FIG. 8 Heparin binding peptides derived from three separate proteins, NCAM (SEQ. I.D. NO. 7), platelet factor 4 and antithrombin III were cross-linked into fibrin at 8 mol/mol fg. The level of neurite outgrowth at 48 hours was normalized against growth in unmodified fibrin and is shown below. Additionally, controls of crosslinked peptide with heparin or just soluble peptide were tested. […] Mean and standard error of the mean are shown. Legend for FIG. 8: ? Peptide Grafted at 8 mol/mol Fg, □ Peptide Grafted at 8 mol/mol Fg with Soluble Heparin, ? Peptide Added in Soluble Phase.
Multiple peptide sequences from extracellular matrix proteins have been chosen. These proteins were chosen in part because of their reported ability to enhance neurite outgrowth (Yamada, 1991, Tashiro, et al., 1989). These proteins have been tested at various concentrations. To test these peptides, specific selected peptide sequences were cross-linked into a three dimensional fibrin matrix with a day 8 dorsal root ganglia embedded into the gels. The neurites were grown for 48 hr, and the migration rate of the neurites extending from the ganglia was quantified for each condition at both 24 and 48 hr. This growth was then normalized to the growth in unmodified fibrin. […] HAV (SEQ. I.D. NO. 6) achieved a maximal effect at 2 mol/mol fg while RGD (SEQ. I.D. NO. 2) achieved a maximal effect at 1.5 mol/mol fg of incorporated peptide.
In one example, the peptide was cross-linked into the gel alone and in the second example, it was incorporated in the presence of heparin. […] Therefore, the effects of interaction between the growing neurites and either a heparin binding domain or heparin itself could be determined. When the peptide was incorporated without heparin present, it was able to enhance the extension of neurites from day 8 chick dorsal root ganglia. Three bi-domain peptides, each with a different heparin binding domain, were tested and gave statistically better growth than unmodified fibrin (FIG. 8). The level of improvement ranged from 75% to 25%. This level of enhancement could be correlated to the binding affinity of the heparin binding domain that was incorporated (Table 3). When heparin was added at the beginning of the study, it was discovered that this abolished the effect, resulting in growth similar to that seen in unmodified fibrin.

[2] = Elution from heparin affinity column (relative heparin binding affinity); details: relative heparin binding affinity of bi-domain peptide
Description: Table 3 Provides results of the relative heparin binding affinity and enhancement of three dimensional neurite outgrowth for several heparin binding peptides. There is a correlation between the binding strength for each peptide and the percent enhancement of neurite outgrowth.

| Substance | concentration of incorporated peptide giving maximal effect on neurite outgrowth [1] | correlation between peptide concentration and level of enhancement of neurite outgrowth [1] | peptide concentration showing maximal enhancement of neurite outgrowth [1] | Enhancement of Neurite Outgrowth (%) [1] [%] | Elution from Heparin Affinity Column (Mol NaCl) [2] [Mol NaCl] |
| --- | --- | --- | --- | --- | --- |
| HAV (heparin binding peptide) | 2 mol/mol fg | – | – | – | – |
| IKVAV (heparin binding peptide) | – | linear correlation | 8 mol peptide/mol fibrinogen | – | – |
| LNQEQVSP K(βA)FAKLAARLYRKA [ATIII] | – | – | – | 73.1 | 0.67 |
| LNQEQVSP KHKGRDVILKKDVR (LNQEQVSPKHKGRDVILKKDVR; heparin binding sequence) [PF4] | – | – | – | 20.2 | 0.34 |
| LNQEQVSP YKKIIKKL (LNQEQVSPYKKIIKKL) [NCAM] | – | – | – | 24.5 | 0.35 |
| RGD | 2 mol/mol fg and 1.5 mol/mol fg | – | – | – | – |
| RNIAEIIKDI | – | linear correlation | 8 mol peptide/mol fibrinogen | – | – |
| YIGSR (heparin binding peptide) | – | linear correlation | 6 mol peptide/mol fibrinogen | – | – |
